6 compounds from article PMC5515508, “Benzene Probes in Molecular Dynamics Simulations Reveal Novel Binding Sites for Ligand Design” (The Journal of Physical Chemistry Letters, 2016) can be followed below.

The experiment deals with T1, MDM2 (1-125) (Homo sapiens, UniProt Q00987).
T1 construct: cleaved MDM2 (1-125) was purified to ~90% purity; GST (N, cleaved yes); made in house; host or cells: Escherichia coli BL21(DE3)
Description: Competitive fluorescence polarization titration against FAM-labeled 12/1 peptide. Format: binding. Particulars: read-out: Dissociation constant (Kd). How it is done: [P] is the protein concentration (MDM2), [L] is the labeled peptide concentration, r is the
Apparent Kd values were determined for a variety of molecules via competitive fluorescence […]
triplicate. Curve-fitting was carried out using Prism 4.0 (GraphPad).

Bridge positions count the residues as written; N and C are the ends. Square brackets hold non-standard residues; d marks the D form. Peptide text beside a SMILES is read from it. R5 = C=CCCC[C@@](C)(N)C(=O)O

T1 sequence (Q00987 1-125): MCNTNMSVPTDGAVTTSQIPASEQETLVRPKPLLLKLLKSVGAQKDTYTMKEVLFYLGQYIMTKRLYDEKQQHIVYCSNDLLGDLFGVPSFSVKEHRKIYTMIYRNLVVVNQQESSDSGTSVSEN

Turning to `CC(=O)N[C@H](C(=O)N[C@@H](CO)C(=O)N[C@@H](Cc1ccccc1)C(=O)N[C@]1(C)CCCC=CCCC[C@](C)(C(=O)N[C@@H](CC(C)C)C(=O)N[C@@H](CC(C)C)C(=O)N[C@@H](CO)C(=O)N[C@@H](CCC(=O)O)C(=O)N[C@@H](CC(N)=O)C(=O)N[C@@H](Cc2ccc(O)cc2)C(N)=O)NC(=O)[C@H](Cc2c[nH]c3ccccc23)NC(=O)[C@H](Cc2ccc(O)cc2)NC(=O)[C@H](CCC(=O)O)NC1=O)[C@@H](C)O` [YS-6] (Ac-TSF[R5]EYW[R5]LLSENY-NH2; staple 4-8), the Kd – broadly, the concentration at which binding is half-saturated – worked out at 8.8 ± 0.6 nM. Consider `CC(=O)N[C@H](C(=O)N[C@@H](CO)C(=O)N[C@@H](Cc1ccccc1)C(=O)N[C@]1(C)CCCC=CCCC[C@](C)(C(=O)N[C@@H](CC(C)C)C(=O)N[C@@H](CC(C)C)C(=O)N2CCC[C@H]2C(=O)N[C@@H](CCC(=O)O)C(=O)N[C@@H](CC(N)=O)C(=O)N[C@@H](C)C(N)=O)NC(=O)[C@H](Cc2c[nH]c3ccccc23)NC(=O)[C@H](Cc2ccc(O)cc2)NC(=O)[C@H](CCC(=O)O)NC1=O)[C@@H](C)O` [YS-4] (Ac-TSF[R5]EYW[R5]LLPENA-NH2; staple 4-8), for which the equilibrium dissociation constant (Kd) was found to be 27.7 ± 1.3 nM. With `CC(=O)N[C@H](C(=O)N[C@@H](CO)C(=O)N[C@@H](Cc1ccccc1)C(=O)N[C@]1(C)CCCC=CCCC[C@](C)(C(=O)N[C@@H](CC(C)C)C(=O)N[C@@H](CC(C)C)C(=O)N[C@@H](CO)C(=O)N[C@@H](CCC(=O)O)C(=O)N[C@@H](CC(N)=O)C(=O)N[C@@H](Cc2ccccc2)C(N)=O)NC(=O)[C@H](Cc2c[nH]c3ccccc23)NC(=O)[C@H](Cc2ccc(O)cc2)NC(=O)[C@H](CCC(=O)O)NC1=O)[C@@H](C)O` [YS-5] (Ac-TSF[R5]EYW[R5]LLSENF-NH2; staple 4-8), the dissociation constant Kd amounted to 11.6 ± 0.9 nM. Then `CC(=O)N[C@H](C(=O)N[C@@H](CO)C(=O)N[C@@H](Cc1ccccc1)C(=O)N[C@]1(C)CCCC=CCCC[C@](C)(C(=O)N[C@@H](CC(C)C)C(=O)N[C@@H](CC(C)C)C(=O)N2CCC[C@H]2C(=O)N[C@@H](CCC(=O)O)C(=O)N[C@@H](CC(N)=O)C(N)=O)NC(=O)[C@H](Cc2c[nH]c3ccccc23)NC(=O)[C@H](Cc2ccc(O)cc2)NC(=O)[C@H](CCC(=O)O)NC1=O)[C@@H](C)O` [YS-3] (Ac-TSF[R5]EYW[R5]LLPEN-NH2; staple 4-8), with 36.1 ± 2.9 nM; and `CC(=O)N[C@H](C(=O)N[C@@H](CO)C(=O)N[C@@H](Cc1ccccc1)C(=O)N[C@]1(C)CCCC=CCCC[C@](C)(C(=O)N[C@@H](CC(C)C)C(=O)N[C@@H](CC(C)C)C(=O)N2CCC[C@H]2C(=O)N[C@@H](CCC(=O)O)C(=O)N[C@@H](CC(N)=O)C(=O)N[C@@H](Cc2ccc(O)cc2)C(N)=O)NC(=O)[C@H](Cc2c[nH]c3ccccc23)NC(=O)[C@H](Cc2ccc(O)cc2)NC(=O)[C@H](CCC(=O)O)NC1=O)[C@@H](C)O` [YS-2] (Ac-TSF[R5]EYW[R5]LLPENY-NH2; staple 4-8), with 7.4 ± 1.5 nM. Take `CC(=O)N[C@H](C(=O)N[C@@H](CO)C(=O)N[C@@H](Cc1ccccc1)C(=O)N[C@]1(C)CCCC=CCCC[C@](C)(C(=O)N[C@@H](CC(C)C)C(=O)N[C@@H](CC(C)C)C(=O)N2CCC[C@H]2C(=O)N[C@@H](CCC(=O)O)C(=O)N[C@@H](CC(N)=O)C(=O)N[C@@H](Cc2ccccc2)C(N)=O)NC(=O)[C@H](Cc2c[nH]c3ccccc23)NC(=O)[C@H](Cc2ccc(O)cc2)NC(=O)[C@H](CCC(=O)O)NC1=O)[C@@H](C)O` [YS-1] (Ac-TSF[R5]EYW[R5]LLPENF-NH2; staple 4-8): the Kd came out at 9.9 ± 1.5 nM.
